ChEMBL document CHEMBL1150022, “O-benzyl hydroxyproline as a bioisostere for Phe-Pro: Novel dipeptide thrombin inhibitors” (Bioorg Med Chem Lett, 1996)
Where a SMILES comes first, the peptide text is derived from it. [ ]: non-standard residue; d: D form. The star is where a group is joined. Hydrocinnamoyl = O=C(CCc1ccccc1)*; Hyp = O=C(O)[C@@H]1C[C@@H](O)CN1; Propionyl = CCC(=O)*; Bn = c1ccc(C*)cc1; Ms = CS(=O)(=O)*; CH2Cl = ClC*

Molecular target: Prothrombin (Homo sapiens, UniProt P00734)
Experiment: Inhibition of thrombin

Row | SMILES | IC50
1 | CC(=O)N1C[C@H](OCCC(c2ccccc2)c2ccccc2)C[C@H]1C(=O)N[C@@H](CCCN=C(N)N)C(=O)CCl | 10 nM
2 | N=C(N)NCCC[C@H](NC(=O)[C@@H]1CCCN1C(=O)[C@H](N)Cc1ccccc1)C(=O)CCl | 1.5 nM
3 | CC(=O)N1C[C@H](CCc2ccccc2)C[C@H]1C(=O)N[C@@H](CCCN=C(N)N)C(=O)CCl | 40 nM
4 | CC(=O)N1C[C@H](OCCCc2ccccc2)C[C@H]1C(=O)N[C@@H](CCCN=C(N)N)C(=O)CCl | 14 nM
5 | NC(N)=NCCC[C@H](NC(=O)[C@@H]1C[C@@H](OCc2ccccc2)CN1C(=O)[C@H](N)Cc1ccccc1)C(=O)CCl | 3 nM
6 | CC(=O)N1C[C@@H](OCc2ccccc2)C[C@H]1C(=O)N[C@@H](CCCNC(=N)N)C(=O)CCl | 4600 nM
7 | CCCCO[C@@H]1C[C@@H](C(=O)N[C@@H](CCCNC(=N)N)C(=O)CCl)N(C(C)=O)C1 | 21.6 nM
8 | CCN1C[C@H](OCc2ccccc2)C[C@H]1C(=O)N[C@@H](CCCNC(=N)N)C(=O)CCl | 8600 nM
9 | CC(=O)N1C[C@H](OCc2ccccc2)C[C@H]1C(=O)N[C@@H](CCCNC(=N)N)C(=O)CCl | 0.9 nM
10 | N=C(N)NCCC[C@H](NC(=O)[C@@H]1C[C@H](OCc2ccccc2)CN1C(=O)[C@H](N)Cc1ccccc1)C(=O)CCl | 7.2 nM
11 | CC(=O)N1C[C@H](OCC2CCCCC2)C[C@H]1C(=O)N[C@@H](CCCN=C(N)N)C(=O)CCl | 4.9 nM
12 | CC(=O)N1CCC[C@H]1C(=O)N[C@@H](CCCN=C(N)N)C(=O)CCl (Ac-Pro-Arg-CH2Cl) | 1350 nM
13 | N=C(N)NCCC[C@H](NC(=O)[C@@H]1C[C@@H](OCc2ccccc2)CN1C(=O)CCc1ccccc1)C(=O)CCl (Hydrocinnamoyl-[Hyp](Bn)-Arg-CH2Cl) | 31.7 nM
14 | CS(=O)(=O)N1C[C@H](OCc2ccccc2)C[C@H]1C(=O)N[C@@H](CCCNC(=N)N)C(=O)CCl (Ms-[Hyp](Bn)-Arg-CH2Cl) | 24 nM
15 | CCC(=O)N1C[C@H](OCc2ccccc2)C[C@H]1C(=O)N[C@@H](CCCN=C(N)N)C(=O)CCl (Propionyl-[Hyp](Bn)-Arg-CH2Cl) | 13 nM
